{
  "source": "patent US8242110B2",
  "about": "“Use of antihistamine agents for the preventive or early treatment of inflammatory syndromes, in particular those triggered by togaviruses” (Pierre Fabre Medicament, priority 2006, dated 2012)",
  "test_system": "Chikungunya virus",
  "test": "Observational study of mequitazine in preventive and early treatment of inflammatory syndromes caused by the Chikungunya virus",
  "format": "in vivo",
  "conditions": "patients",
  "experimental": "Effect of Mequitazine on the Preventive and Early Treatment of Inflammatory Syndromes Caused by the Chikungunya Virus—Results of an Observational Study\n104 patients were included in this observational study involving a limited number of doctors held secret: mean age 39.6 years, 61.9% female.\nAt the time of inclusion at D0, the patients were slightly feverish with a mean temperature of 38.4° C.\nThe patients consulted after various periods following the onset of hyperthermia, but generally 1.1 days after this onset, the phase preceding the onset of arthralgia.\nDuring this first visit, the most painful joints were the fingers, wrists and ankles.\nAt this first visit on D0, the doctors gave mequitazine to the patients, possibly in combination with an anti-inflammatory.\nA questionnaire was handed to each patient and completed with the patient.\nThis questionnaire included the content of 2 conventional questionnaires: • HAQ* questionnaire (Health Assessment Questionnaire) to assess the functional capacity of patients (function index) i.e. the handicap generated by the pathology; • A SF12** questionnaire to assess the quality of life of the patient using the SF12 score.\nAt D7 and D14 the patient again filled in these questionnaires.\nAt D28, at the time of a further consultation, these questionnaires were again updated. • HAQ: Bruce B and Fries J. The Stanford Health Assessment Questionnaire (HAQ): A review of its history, issues, progress and documentation. J. Rheumatol. 2003; 30(1):167-78. • SF12: Ware J Jr, Kosinski M, Keller S D. A 12-item Short-Form Health Survey: construction of scales and preliminary tests of reliability and validity. Med. Care 1996; 34:220-33.",
  "data": [
    {"smiles": "c1ccc2c(c1)Sc1ccccc1N2CC1CN2CCC1CC2", "note": "(centres unmarked) [mequitazine]", "values": [
      {"measurement": "handicap generated by the pathology (HAQ function index)", "setting": "at D14, mequitazine given at D0", "result": "statistically significant improvement"},
      {"measurement": "handicap generated by the pathology (HAQ function index)", "setting": "at D28, mequitazine given at D0", "result": "statistically significant improvement"},
      {"measurement": "number of painful joints", "setting": "between D0 and D7, decrease continuing in time", "result": "significant decrease"},
      {"measurement": "influence of combining an anti-inflammatory with mequitazine on the SF12 physical score measuring quality of life", "setting": "mequitazine combined with an anti-inflammatory", "result": "does not have an influence"},
      {"measurement": "physical recovery (SF12 scale and HAQ test) in relation to how early mequitazine is prescribed", "setting": "the earlier a patient consults and mequitazine is prescribed", "result": "the more physical recovery is swift and extensive"}
    ]}
  ]
}
